The record followed here is patent EP4786454A1, “HETEROARYL DERIVATIVE AND USE THEREOF” (priority 2023, dated 2025).

In one series the test system is male CD-1 mice. Briefly: Maximal electroshock-induced epilepsy model, behavioral pharmacodynamics. The class given is in vivo. The settings on record: 5 mg/kg orally, one hour before electrical stimulation. The text has this:
This study used behavioral tests in male CD-1 mice to investigate the effects of test compounds on acute epileptic seizures behavior induced by maximal electroshock.
Male CD-1 mice (25 to 35g) were used as the experimental animals and fed with standard feed (Beijing Vital River Laboratory Animal Technology Co., Ltd.).
After arriving at the animal facility, the experimental animals needed to acclimatize for at least one week. The mice were observed daily for vital signs, and randomly divided into groups according to their body weights one day before the drug administration. One hour before the electrical stimulation, different dosages of the test compound were orally administered to each group. On the day of the assay, the male CD-1 mice in each group were anesthetized locally at the cornea with 2% lidocaine. Then, silver bipolar electrodes were used to electrically stimulate the cornea of the mice with 18 mA, 60 Hz, a pulse width of 0.6 ms, and a stimulation time of 1 s to induce seizures. Subsequently, the latency of seizures and the duration of limb rigidity in mice after the electrical stimulation were observed, and the protection rate from seizures for each group was statistically analyzed.

A short description of series [1]: Stability in liver microsomes (human). Type of series: in vitro ADME. The settings on record: h (human liver microsomes), 0.5 mg/mL, read-out: MMS Clint. The method, then:
(§1) The purpose of this study was to evaluate the phase I metabolic stability of the assay sample in liver microsomes from CD-1 mice, Sprague-Dawley (SD) rats, beagle dogs, cynomolgus monkeys, and human.
(§2) The animal and human liver microsomes used in this assay system were purchased from Xenotech, Corning, or other qualified suppliers.
(§3) Preparation of buffer: 73.21 g of potassium phosphate dibasic trihydrate and 10.78 g of potassium dihydrogen phosphate were dissolved in 4000 mL of ultrapure water. The pH of the solution was adjusted to the range of 7.40 ± 0.10 using 10.0% phosphoric acid or 1.00 M potassium hydroxide. Its final concentration was 100 mM.
(§4) Preparation of working solutions: An assay sample powder was prepared into a 10.0 mM stock solution with DMSO, and then further diluted with a suitable organic solvent. The control compounds testosterone, diclofenac, and propafenone were prepared into 10.0 mM stock solutions using DMSO, and then further diluted with a suitable organic solvent.
(§5) Preparation of liver microsome solution: Microsomes of various species were diluted with 100 mM potassium phosphate buffer to a working solution of 0.56 mg/mL. The final concentration of microsomes in the reaction system was 0.500 mg/mL. Detailed preparation procedures were described in the experimental records.
(§6) Preparation of reduced nicotinamide adenine dinucleotide phosphate (NADPH) solution: An appropriate amount of reduced nicotinamide adenine dinucleotide phosphate was dissolved in magnesium chloride solution, and the mixture was shaken to mix well. The final concentrations in the reaction system were 1.00 mM NADPH and 1.00 mM magnesium chloride, respectively. Detailed preparation procedures were described in the experimental records.
(§7) Preparation of stop solution: The stop solution was prepared using acetonitrile containing internal standards (tolbutamide and labetalol). The prepared stop solution was stored at 2.0 to 8.0 °C in a refrigerator. Detailed preparation procedures were described in the experimental records. […]
For orientation: Liver microsomes are vesicles of endoplasmic reticulum, rich in cytochrome P450 enzymes.

Series [2] is described as follows: Stability in liver microsomes (rat). The class given is in vitro ADME, Sprague-Dawley (SD) rats. The settings on record: r (SD rat liver microsomes), 0.5 mg/mL, read-out: MMS Clint. As for the experimental part:
as §1, §2, §3, §4, §5, §6, §7

Series [3] can be described thus: Stability in liver microsomes (monkey). The class given is in vitro ADME, cynomolgus monkeys. The settings on record: c (cynomolgus monkey liver microsomes), 0.5 mg/mL, read-out: MMS Clint. As for the experimental part:
as §1, §2, §3, §4, §5, §6, §7

Consider `CC(C)(C)CC(=O)Nc1nc2c(F)cc(C#N)cn2c1-c1ccc(OC(F)(F)F)cc1` [Compound 1], for which the “Protection rate from seizures” value with male CD-1 mice turned out to be 66.7%. Besides, the CLint scaled at 1 µM in series [1] was 30 mL/min/kg; in series [2] it was 193 mL/min/kg; in series [3] it was 130 mL/min/kg.

Consider `CC(C)(C)CC(=O)Nc1nc2c(F)cc(C#N)cn2c1C1=CCCC1` [Compound 3], for which the “Protection rate from seizures” value with male CD-1 mice is 66.7%. Besides, the CLint scaled at 1 µM in series [1] stood at 19 mL/min/kg; in series [2], 123 mL/min/kg; in series [3], 129 mL/min/kg.

In the case of `CC(C)(C)CC(=O)Nc1nc2c(F)cc(C#N)cn2c1C12CC(C1)C2` [Compound 5], the CLint scaled at 1 µM in series [1] was below 8.6 mL/min/kg; in series [2], below 17 mL/min/kg; in series [3], 15.3 mL/min/kg.
